Source: ChEMBL document CHEMBL6177973, “A Novel Compound 3a-M1, from Metabolites of Sinomenine Derivative 3a, Exerts Potent Anti-Aplastic Anemia Activity via IP3R/ORAI-Mediated CTL Ferroptosis” (J Med Chem, 2025)
Calls of active or inactive are those of the source. The rule behind the calls is not given here.

Columns and labels:
[1] = Drug metabolism in Sprague-Dawley rat plasma assessed as cinnamic acid metabolite formation at 50 mg/kg, po measured for 24 hrs by HPLC analysis; format: ADME, organism-based; conditions: in vivo
[2] = Drug metabolism in rat plasma assessed as cinnamic acid metabolite formation at 50 mg/kg, po measured for 24 hrs by HPLC-UV analysis; format: ADME, organism-based; conditions: in vivo
[3] = Stability in mouse small intestine assessed as compound remaining at 50 mg/kg, po measured for 0.083 to 8 hrs by HPLC analysis; format: ADME, organism-based; conditions: in vivo, time 0.083-8 hrs
[4] = Stability in mouse bone marrow assessed as compound remaining at 50 mg/kg, po measured for 0.083 to 8 hrs by HPLC analysis; format: ADME, organism-based; conditions: in vivo, time 0.083-8 hrs
[5] = Drug metabolism in mouse plasma assessed as (4bR,9S)-1-(hydroxymethyl)-3,7-dimethoxy-11-methyl-6-oxo-6,8a,9,10-tetrahydro-5H-9,4b-(epiminoethano)phenanthren-4-yl cinnamate metabolite formation administered orally by HRMS analysis; format: ADME; conditions: po
[6] = Drug metabolism in rat plasma assessed as double hydrolyzation/double demethylation-mediated metabolite formation at 50 mg/kg, po measured for 24 hrs by HRMS analysis; format: ADME, organism-based; conditions: in vivo
[7] = Drug metabolism in mouse plasma assessed as cinnamic acid metabolite formation administered orally by HRMS analysis; format: ADME; conditions: po
[8] = Drug metabolism in rat plasma assessed as hydrolyzation/hydroxylation-mediated metabolite formation at 50 mg/kg, po measured for 24 hrs by HRMS analysis; format: ADME, organism-based; conditions: in vivo
[9] = Stability in rat plasma at 50 mg/kg, po measured for 24 hrs by HPLC analysis; format: ADME, organism-based; conditions: in vivo
[10] = Drug metabolism in rat plasma assessed as hydrolyzation/demethylation-mediated metabolite formation at 50 mg/kg, po measured for 24 hrs by HRMS analysis; format: ADME, organism-based; conditions: in vivo
[11] = Drug metabolism in rat plasma assessed as hydrolyzation/double hydroxylation-mediated metabolite formation at 50 mg/kg, po measured for 24 hrs by HRMS analysis; format: ADME, organism-based; conditions: in vivo
[12] = Drug metabolism in mouse liver assessed as (4bR,9S)-1-(hydroxymethyl)-3,7-dimethoxy-11-methyl-6-oxo-6,8a,9,10-tetrahydro-5H-9,4b-(epiminoethano)phenanthren-4-yl cinnamate metabolite formation at 50 mg/kg, po measured for 0.083 to 8 hrs by HPLC analysis; format: ADME, organism-based; conditions: in vivo, time 0.083-8 hrs
[13] = Drug metabolism in mouse thymus assessed as cinnamic acid metabolite formation at 50 mg/kg, po measured for 0.083 to 8 hrs by HPLC analysis; format: ADME, organism-based; conditions: in vivo, time 0.083-8 hrs
[14] = Drug metabolism in rat plasma assessed as hydrolyzation/demethylation/hydroxylation-mediated metabolite formation at 50 mg/kg, po measured for 24 hrs by HRMS analysis; format: ADME, organism-based; conditions: in vivo
Mus musculus [15] = assay: Anti-aplastic anemia activity in C57BL/6J mouse model of immune-mediated bone marrow failure assessed as increase in peripheral red blood cells treated intragastrically once daily for 21 days; format: functional, organism-based; conditions: dose 5-15 mg/kg, route ig, time 21.0 day
CTLL-2 [16] = assay: Induction of ferroptosis in mouse CTLL-2 cells assessed as increase in intracellular Ca2+ concentration incubated for 24 hrs by Fluo-4 AM dye based analysis; format: functional, cell-based
Mus musculus [17] = assay: Anti-aplastic anemia activity in BALB/c mouse model of immune-mediated bone marrow failure assessed as increase in body weight at 10 mg/kg, po treated for 14 days; format: functional, organism-based; conditions: time 14.0 day
Mus musculus [18] = assay: Anti-aplastic anemia activity in BALB/c mouse model of immune-mediated bone marrow failure assessed as increase in hemoglobin level at 10 mg/kg, po treated for 14 days; format: functional, organism-based; conditions: time 14.0 day
Mus musculus [19] = assay: Anti-aplastic anemia activity in C57BL/6J mouse model of immune-mediated bone marrow failure assessed as decrease in histopathological change in bone marrow treated intragastrically once daily for 21 days by H and E staining based analysis; format: functional, organism-based; conditions: dose 5-15 mg/kg, route ig, time 21.0 day
CTLL-2 [20] = assay: Induction of ferroptosis in IL-2-stimulated mouse CTLL-2 cells assessed as increase in pMEK level at 30 uM incubated for 6 hrs followed by Fer-1 addition measured after 10 hrs by Western blot analysis; format: functional, cell-based; conditions: time 16.0 hrs
Mus musculus [21] = assay: Anti-aplastic anemia activity in C57BL/6J mouse model of immune-mediated bone marrow failure assessed as reduction in cytotoxic T lymphocytes hyperactivation at 5 to 15 mg/kg, IG qd treated for 12 days; format: functional, organism-based; conditions: dose 5-15 mg/kg, time 12.0 day
Mus musculus [22] = assay: Anti-aplastic anemia activity in BALB/c mouse model of immune-mediated bone marrow failure assessed as increase in nucleated cells in bone marrow at 10 mg/kg, po treated for 14 days by H and E staining based analysis; format: functional, organism-based; conditions: time 14.0 day
Mus musculus [23] = assay: Anti-aplastic anemia activity in C57BL/6J mouse model of immune-mediated bone marrow failure assessed as reduction in proportion of effector CD8+ T cells at 5 to 15 mg/kg, IG qd treated for 12 days by flow cytometry; format: functional, organism-based; conditions: dose 5-15 mg/kg, time 12.0 day
CTLL-2 [24] = assay: Induction of ferroptosis in mouse CTLL-2 cells assessed as decrease in GSH level incubated for 16 hrs; format: functional, cell-based; conditions: dose 7.5-30 µM
Mus musculus [25] = assay: Anti-aplastic anemia activity in BALB/c mouse model of immune-mediated bone marrow failure assessed as increase in platelet cells at 10 mg/kg, po treated for 14 days; format: functional, organism-based; conditions: time 14.0 day
CTLL-2 [26] = assay: Induction of ferroptosis in mouse CTLL-2 cells assessed as increase in intracellular Ca2+ concentration at 10 uM incubated for 60 mins in presence of EDTA by Fluo-4 AM dye based analysis; format: functional, cell-based
CTLL-2 [27] = assay: Induction of ferroptosis in mouse CTLL-2 cells assessed as increase in intracellular Ca2+ concentration at 10 uM incubated for 45 mins in presence of 2-APB by Fluo-4 AM dye based analysis; format: functional, cell-based
CTLL-2 [28] = assay: Induction of ferroptosis in mouse CTLL-2 cells assessed as increase in p-p38 level at 7.5 to 30 uM incubated for 16 hrs by Western blot analysis; format: functional, cell-based; conditions: dose 7.5-30 µM
CTLL-2 [29] = assay: Induction of ferroptosis in mouse CTLL-2 cells assessed as increase in intracellular Ca2+ concentration at 10 uM incubated for 45 mins in presence of CM4620 by Fluo-4 AM dye based analysis; format: functional, cell-based
Mus musculus [30] = assay: Anti-aplastic anemia activity in C57BL/6J mouse model of immune-mediated bone marrow failure assessed as CD8+ T cells at 5 mg/kg, IG qd treated for 12 days by flow cytometry (reference value: 72.15 %); format: functional; conditions: time 12 day
Mus musculus [31] = assay: Anti-aplastic anemia activity in BALB/c mouse model of immune-mediated bone marrow failure assessed as restoration of nucleated to red blood cell ratio in bone marrow at 10 mg/kg, po treated for 14 days by H and E staining based analysis; format: functional, organism-based; conditions: time 14.0 day
[32] = Cmax in Sprague-Dawley rat at 50 mg/kg, po measured for 0.083 to 24 hrs by HPLC analysis; format: ADME, organism-based; conditions: in vivo, time 0.083-24 hrs
[33] = Acute toxicity in 12 hr-fasted KM mouse assessed as animal survival at 10 g/kg, po administered as single dose measured for 14 days; format: organism-based; conditions: in vivo, 10000 mg/kg, 336 h, time 14 day
Mus musculus [34] = assay: Anti-aplastic anemia activity in C57BL/6J mouse model of immune-mediated bone marrow failure assessed as decrease in ratio of CD8+ to CD4+ T cells at 5 to 15 mg/kg, IG qd treated for 12 days by flow cytometry; format: functional, organism-based; conditions: dose 5-15 mg/kg, time 12.0 day

## COC1=C[C@@H]2[C@@H]3Cc4c(COC(=O)/C=C/c5ccccc5)cc(OC)c(OC(=O)/C=C/c5ccccc5)c4[C@]2(CCN3C)CC1=O
[1]
  Drug metabolism: metabolite_detected
[2]
  Drug metabolism: metabolite_detected
[3]
  Stability: Stable
[4]
  Stability: Unstable
[5]
  Drug metabolism: metabolite_detected
[6]
  Drug metabolism: metabolite_detected
[7]
  Drug metabolism: metabolite_detected
[8]
  Drug metabolism: metabolite_detected
[9]
  Stability: Unstable
[10]
  Drug metabolism: metabolite_detected
[11]
  Drug metabolism: metabolite_detected
[12]
  Drug metabolism: metabolite_detected
[13]
  Drug metabolism: metabolite_detected
[14]
  Drug metabolism: metabolite_detected

## COC1=C[C@@H]2[C@@H]3Cc4c(CO)cc(OC)c(OC(=O)/C=C/c5ccccc5)c4[C@]2(CCN3C)CC1=O
Mus musculus [15]
  Activity: Dose-dependent-effect
CTLL-2 [16]
  Activity: Active
Mus musculus [17]
  Activity: Active
Mus musculus [18]
  Activity: Active
Mus musculus [19]
  Activity: Dose-dependent-effect
CTLL-2 [20]
  Activity: inactive
Mus musculus [21]
  Activity: Active
Mus musculus [22]
  Activity: Active
Mus musculus [23]
  Activity: Active
CTLL-2 [24]
  Activity: Dose-dependent-effect
Mus musculus [25]
  Activity: Active
CTLL-2 [26]
  Activity: Active
CTLL-2 [27]
  Activity: inactive
CTLL-2 [28]
  Activity: Active
CTLL-2 [29]
  Activity: inactive
Mus musculus [30]
  Activity: 60.82%
Mus musculus [31]
  Activity: Active
[32]
  Cmax: 3590 ng/mL
[33]
  Activity: Non-toxic
Mus musculus [34]
  Activity: Active
